Experimental data as given in ChEMBL document CHEMBL1145565, “Synthesis, biological evaluation and radiochemical labeling of a dansylhydrazone derivative as a potential imaging agent for apoptosis” (2008).
Activity calls are given as the source filed them. The calls are words filed in the database; no cut-off is given here.

How the values were obtained:
MCF7 [1] = assay: Induction of apoptosis in human MCF7 cells assessed as morphology at 50 nM after 16 hrs; assay type: functional
K562 = assay: Effect on drug-uptake in imatinib-induced human K562 apoptotic cells; assay type: functional, cell-based
HT-29 = assay: Effect on drug-uptake in imatinib-induced human HT29 apoptotic cells; assay type: functional, cell-based
MCF7 [2] = assay: Effect on drug uptake in cytoplasm of paclitaxel-treated human MCF7 apoptotic cells; assay type: functional, cell-based

Row | Structure (SMILES) | Activity (MCF7 [1]) [%] | Activity (K562) | Activity (HT-29) | Activity (MCF7 [2])
1 | CC(=O)O[C@H]1C(=O)[C@@]2(C)[C@H]([C@H](OC(=O)c3ccccc3)[C@]3(O)C[C@H](OC(=O)[C@H](O)[C@@H](NC(=O)c4ccccc4)c4ccccc4)C(C)=C1C3(C)C)[C@]1(OC(C)=O)CO[C@@H]1C[C@@H]2O [PACLITAXEL] | 30 |  |  | 
2 | CN(C)c1ccc(/C=N/NS(=O)(=O)c2cccc3c(N(C)C)cccc23)cc1 |  | Active | Active | 
3 | Cc1cc(=O)cc2c3c1[C@@H]1O[C@H]4[C@@H]5OC(=O)[C@](CC2)([C@@H]4C)[C@H]3[C@@H]51 |  | Active | Active | 
4 | CN(C)c1cccc2c(S(=O)(=O)N/N=C/c3ccc(I)cc3)cccc12 |  | Active | Active | 
5 | CN(C)c1cccc2c(S(=O)(=O)N/N=C\c3ccc(F)cc3)cccc12 |  |  |  | Active
6 | CN(C)c1cccc2c(S(=O)(=O)N/N=C/c3ccc([N+](=O)[O-])cc3)cccc12 |  | Active | Active | 
